From ChEMBL document CHEMBL1201862, “PubChem BioAssay data set” (2004)
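Five concentrations, 48 hours, 96-well plates. GI50: concentration for 50% inhibition of growth.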 Calls of active or inactive are those of the source. Rule as the data show it: active = GI50 up to about 1.1 µM and inactive = higher.

Columns and labels:
Assay in all cases: NCI tumour cell line growth inhibition, 48 h
SK-OV-3 = system: SK-OV-3
TK-10 = system: TK-10
HT-29 = system: HT-29
UACC-62 = system: UACC-62
MDA-MB-231 = system: MDA-MB-231
K562 = system: K562
MDA-N = system: MDA-N
SF-539 = system: SF-539
OVCAR-3 = system: OVCAR-3
DU-145 = system: DU-145
HCT-15 = system: HCT-15
MCF7 = system: MCF7
HCT-116 = system: HCT-116
NCI-H23 = system: NCI-H23
MOLT-4 = system: MOLT-4
EKVX = system: EKVX
COLO 205 = system: COLO 205
SNB-75 = system: SNB-75
NCI-H226 = system: NCI-H226
IGROV-1 = system: IGROV-1
SF-268 = system: SF-268
RPMI-8226 = system: RPMI-8226
NCI-H460 = system: NCI-H460
LOX IMVI = system: LOX IMVI
HOP-62 = system: HOP-62
SF-295 = system: SF-295
MDA-MB-435 = system: MDA-MB-435
786-0 = system: 786-0
Hs-578T = system: Hs-578T
SW-620 = system: SW-620
HCC 2998 = system: HCC 2998
HL-60 = system: HL-60
SR = system: SR
NCI/ADR-RES = system: NCI/ADR-RES
U-251 = system: U-251
UACC-257 = system: UACC-257
SK-MEL-5 = system: SK-MEL-5
OVCAR-4 = system: OVCAR-4
HOP-92 = system: HOP-92
ACHN = system: ACHN
SK-MEL-28 = system: SK-MEL-28
A549 = system: A549
SK-MEL-2 = system: SK-MEL-2
M14 = system: M14
UO-31 = system: UO-31
SN12C = system: SN12C
T47D = system: T47D
Malme-3M = system: Malme-3M
OVCAR-5 = system: OVCAR-5
KM12 = system: KM12
OVCAR-8 = system: OVCAR-8
CCRF-CEM = system: CCRF-CEM
PC-3 = system: PC-3
BT-549 = system: BT-549
SNB-19 = system: SNB-19
NCI-H522 = system: NCI-H522
RXF 393 = system: RXF 393

Measured: GI50

O=C1CSC2=NC3=C(CSC/C3=C\c3ccccc3)C(c3ccccc3)N12 (centres undefined)
> 100 µM: HCT-15
inactive: SK-OV-3 > 100 µM | TK-10 > 100 µM | HT-29 95.5 µM | UACC-62 > 100 µM | MDA-MB-231 > 100 µM | K562 39.4 µM | MDA-N 32.6 µM | SF-539 > 100 µM | OVCAR-3 88.9 µM | DU-145 > 100 µM | MCF7 33.3 µM | HCT-116 50.2 µM | NCI-H23 62.1 µM | MOLT-4 53.5 µM | EKVX > 100 µM | COLO 205 > 100 µM | SNB-75 29.6 µM | NCI-H226 > 100 µM | IGROV-1 > 100 µM | SF-268 > 100 µM | RPMI-8226 31.1 µM | NCI-H460 81.3 µM | LOX IMVI 44.5 µM | HOP-62 > 100 µM | SF-295 > 100 µM | MDA-MB-435 65.5 µM | 786-0 > 100 µM | Hs-578T > 100 µM | SW-620 84.9 µM | HCC 2998 > 100 µM | HL-60 32.2 µM | SR 65.3 µM | NCI/ADR-RES > 100 µM | U-251 39.8 µM | UACC-257 > 100 µM | SK-MEL-5 52.1 µM | OVCAR-4 > 100 µM | HOP-92 46 µM | ACHN 57.5 µM | SK-MEL-28 > 100 µM | A549 50.6 µM | SK-MEL-2 > 100 µM | M14 41.5 µM | UO-31 24.9 µM | SN12C 92.9 µM | T47D 52.2 µM | Malme-3M > 100 µM | OVCAR-5 > 100 µM | KM12 70.3 µM | OVCAR-8 86.5 µM | CCRF-CEM 33.8 µM | PC-3 28.1 µM

Cc1ccc(S(=O)(=O)NC(=O)NC(Cc2ccccc2)C(=O)O)cc1 (centres undefined)
inactive: SK-OV-3 > 100 µM | TK-10 > 100 µM | HT-29 > 100 µM | UACC-62 > 100 µM | MDA-MB-231 > 100 µM | BT-549 > 100 µM | K562 > 100 µM | SNB-19 > 100 µM | SF-539 > 100 µM | DU-145 > 100 µM | MCF7 > 100 µM | HCT-116 > 100 µM | NCI-H23 > 100 µM | MOLT-4 > 100 µM | COLO 205 > 100 µM | SNB-75 > 100 µM | IGROV-1 > 100 µM | SF-268 > 100 µM | RPMI-8226 > 100 µM | NCI-H460 > 100 µM | LOX IMVI > 100 µM | HOP-62 > 100 µM | SF-295 > 100 µM | 786-0 > 100 µM | Hs-578T > 100 µM | SW-620 > 100 µM | HL-60 > 100 µM | SR > 100 µM | NCI/ADR-RES > 100 µM | U-251 > 100 µM | UACC-257 > 100 µM | SK-MEL-5 > 100 µM | OVCAR-4 > 100 µM | HOP-92 > 100 µM | NCI-H522 > 100 µM | ACHN > 100 µM | SK-MEL-28 > 100 µM | A549 > 100 µM | SK-MEL-2 > 100 µM | M14 > 100 µM | UO-31 > 100 µM | SN12C > 100 µM | T47D > 100 µM | Malme-3M > 100 µM | OVCAR-5 > 100 µM | KM12 > 100 µM | RXF 393 > 100 µM | OVCAR-8 > 100 µM | CCRF-CEM > 100 µM | PC-3 > 100 µM
> 100 µM: HCT-15

COc1cc(OC)c2[nH]c3c(O)c(-c4c(C)cc5c([nH]c6c(OC)cc(OC)cc65)c4O)c(C)cc3c2c1
inactive: TK-10 10.1 µM | MDA-MB-231 9.23 µM | BT-549 9.02 µM | SF-539 9.42 µM | OVCAR-3 8.87 µM | DU-145 7.87 µM | HCT-116 8.81 µM | EKVX 6.22 µM | SNB-75 7.89 µM | NCI-H226 9.08 µM | IGROV-1 7.18 µM | SF-268 8.39 µM | NCI-H460 8.55 µM | LOX IMVI 7.89 µM | HOP-62 10.3 µM | 786-0 8.3 µM | Hs-578T 9.44 µM | SW-620 9.35 µM | HCC 2998 8.51 µM | NCI/ADR-RES 8.77 µM | U-251 11.7 µM | UACC-257 9.33 µM | OVCAR-4 9.42 µM | HOP-92 8.73 µM | NCI-H522 9.06 µM | ACHN 8.77 µM | SK-MEL-28 9.38 µM | A549 6.49 µM | SK-MEL-2 9.25 µM | M14 8.38 µM | T47D 8.85 µM | KM12 9.4 µM | RXF 393 9.12 µM | OVCAR-8 8.43 µM | PC-3 7.91 µM
